According to US20220386606A1, “SPECIFICALLY SUBSTITUTED 3-PHENYL-5-SPIROCYCLOPENTYL-3-PYRROLIN-2-ONES AND THEIR USE AS HERBICIDES” (Bayer Aktiengesellschaft, priority 2019, published 2022):

What was measured:
ALOMY [1] = assay: Pre-emergence herbicidal action against ALOMY; assay type: in vivo, Alopecurus myosuroides; settings: 320 g/ha, scored visually after 3 weeks vs untreated controls
How it was run: (§1)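 Pots of sandy loam with covered seeds receive a surface application of compound (WP or EC; aqueous, 600 to 800 L/ha, 0.2% wetting agent) before emergence. Under good greenhouse growth conditions, percent damage is judged by eye at 3 weeks against untreated controls.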

AVEFA [2] = assay: Pre-emergence herbicidal action against AVEFA; assay type: in vivo, Avena fatua; settings: 320 g/ha, scored visually after 3 weeks vs untreated controls
How it was run: as §1

DIGSA [3] = assay: Pre-emergence herbicidal action against DIGSA; assay type: in vivo, Digitaria sanguinalis; settings: 320 g/ha, scored visually after 3 weeks vs untreated controls
How it was run: as §1

ECHCG [4] = assay: Pre-emergence herbicidal action against ECHCG; assay type: in vivo, Echinochloa crus-galli; settings: 320 g/ha, scored visually after 3 weeks vs untreated controls
How it was run: as §1

LOLRI [5] = assay: Pre-emergence herbicidal action against LOLRI (Table 8, titled post-emergence at 320 g/ha); assay type: in vivo, Lolium rigidum; settings: table stands in the pre-emergence section
How it was run: as §1

SETVI [6] = assay: Pre-emergence herbicidal action against SETVI; assay type: in vivo, Setaria viridis; settings: 320 g/ha, scored visually after 3 weeks vs untreated controls
How it was run: as §1

ABUTH [7] = assay: Pre-emergence herbicidal action against ABUTH; assay type: in vivo, Abutylon threophrasti; settings: 320 g/ha
How it was run: as §1

VIOTR [8] = assay: Pre-emergence herbicidal action against VIOTR; assay type: in vivo, Viola tricolor; settings: 320 g/ha
How it was run: as §1

VERPE = assay: Pre-emergence herbicidal action against VERPE; assay type: in vivo, Veronica persica; settings: 320 g/ha
How it was run: as §1

ALOMY [9] = assay: Post-emergence herbicidal action against ALOMY; assay type: in vivo, Alopecurus myosuroides; settings: 80 g/ha, visual assessment after about 3 weeks
How it was run: (§2)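 Greenhouse post-emergence test; one-leaf stage (2–3 wk post-sowing), sandy loam. Spray: WP/EC in water, 600–800 l/ha, 0.2% wetting agent, onto green parts. Visual rating ~3 wk later, % vs untreated (100% = dead, 0% = like control).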

AVEFA [10] = assay: Post-emergence herbicidal action against AVEFA; assay type: in vivo, Avena fatua; settings: 80 g/ha, visual assessment after about 3 weeks
How it was run: as §2

DIGSA [11] = assay: Post-emergence herbicidal action against DIGSA; assay type: in vivo, Digitaria sanguinalis; settings: 80 g/ha, visual assessment about 3 weeks after treatment vs untreated controls
How it was run: as §2

ECHCG [12] = assay: Post-emergence herbicidal action against ECHCG; assay type: in vivo, Echinochloa crus-galli; settings: 80 g/ha, visual assessment about 3 weeks after treatment vs untreated controls
How it was run: as §2

LOLRI [13] = assay: Post-emergence herbicidal action against LOLRI; assay type: in vivo, Lolium rigidum; settings: 80 g/ha, visual assessment about 3 weeks after treatment vs untreated controls
How it was run: as §2

SETVI [14] = assay: Post-emergence herbicidal action against SETVI; assay type: in vivo, Setaria viridis; settings: 80 g/ha, visual assessment about 3 weeks after treatment vs untreated controls
How it was run: as §2

VIOTR [15] = assay: Post-emergence herbicidal action against VIOTR; assay type: in vivo, Viola tricolor; settings: 80 g/ha, visual assessment about 3 weeks after treatment vs untreated controls
Method: (§3) Seeds of monocotyledonous and dicotyledonous weed and crop plants are laid out in sandy loam soil in wood-fiber pots, covered with soil and cultivated in a greenhouse under good growth conditions. 2 to 3 weeks after sowing, the test plants are treated at the one-leaf stage. The compounds of the invention, formulated in the form of wettable powders (WP) or as emulsion concentrates (EC), are then sprayed onto the green parts of the plants as aqueous suspension or emulsion at a water application rate equating to 600 to 800 l/ha with addition of 0.2% wetting agent. After the test plants have been left to stand in the greenhouse under optimal growth conditions for about 3 weeks, the action of the preparations is assessed visually in comparison to untreated controls (herbicidal action in percent (%): 100% activity=the plants have died, 0% activity=like control plants).

ABUTH [16] = assay: Post-emergence herbicidal action against ABUTH; assay type: in vivo, Abutylon threophrasti; settings: 80 g/ha, visual assessment about 3 weeks after treatment vs untreated controls
How it was run: as §2

HORMU = assay: Post-emergence herbicidal action against HORMU; assay type: in vivo, Hordeum murinum; settings: 80 g/ha, visual assessment about 3 weeks after treatment vs untreated controls
How it was run: as §2

AMARE [17] = assay: Post-emergence herbicidal action against AMARE; assay type: in vivo, Amaranthus retroflexus; settings: 80 g/ha, visual assessment about 3 weeks after treatment vs untreated controls
Method: as §3

AMARE [18] = assay: Pre-emergence herbicidal action against AMARE; assay type: in vivo, Amaranthus retroflexus; settings: 320 g/ha
How it was run: as §1

MATIN = assay: Pre-emergence herbicidal action against MATIN; assay type: in vivo; settings: 320 g/ha
How it was run: as §1

POLCO = assay: Pre-emergence herbicidal action against POLCO; assay type: in vivo, Polygonum convolvulus; settings: 320 g/ha
How it was run: as §1

Row | SMILES | Pre-emergence action against ALOMY in % (ALOMY [1]) [%] | Pre-emergence action against AVEFA in % (AVEFA [2]) [%] | Pre-emergence action against DIGSA in % (DIGSA [3]) [%] | Pre-emergence action against ECHCG in % (ECHCG [4]) [%] | Pre-emergence herbicidal action against LOLRI in % (LOLRI [5]) [%] | Pre-emergence action against SETVI in % (SETVI [6]) [%] | Pre-emergence action against VIOTR in % (VIOTR [8]) [%] | Pre-emergence action against VERPE in % (VERPE) [%] | Post-emergence action against ALOMY in % (ALOMY [9]) [%] | Post-emergence action against AVEFA in % (AVEFA [10]) [%] | Post-emergence action against DIGSA in % (DIGSA [11]) [%] | Post-emergence action against ECHCG in % (ECHCG [12]) [%] | Post-emergence action against LOLRI in % (LOLRI [13]) [%] | Post-emergence action against SETVI in % (SETVI [14]) [%] | Post-emergence action against VIOTR in % (VIOTR [15]) [%] | Post-emergence action against ABUTH in % (ABUTH [16]) [%] | Post-emergence action against AMARE in % (AMARE [17]) [%] | further results
1 | CC#Cc1cc(C)c(C2=C(OC(=O)OCC)C3(CCC(COCC)C3)NC2=O)c(Br)c1 (centres unmarked) [Example P-34] | 100 | 100 | 100 | 100 | 100 | 100 | 100 | 80 | 100 | 90 | 100 | 100 | 90 | 100 | 80 | – | – | Pre-emergence action against ABUTH in % (ABUTH [7]): 90%
2 | CC#Cc1cc(C)c(C2=C(OC(=O)C(C)C)C3(CCC(COCC)C3)NC2=O)c(Cl)c1 (centres unmarked) [Example P-17] | – | – | – | – | – | – | – | – | 100 | 100 | 100 | 100 | 100 | 100 | 80 | 90 | – | Post-emergence action against HORMU in % (HORMU): 100%
3 | C=CCOCC1CCC2(C1)NC(=O)C(c1c(C)cc(C#CC)cc1Br)=C2OC(=O)OCC (centres unmarked) [Example P-88] | 100 | 90 | 100 | 100 | 100 | 100 | 100 | 100 | 100 | – | 90 | 100 | 100 | 100 | – | – | 80 | Pre-emergence action against ABUTH in % (ABUTH [7]): 80%
4 | CC#Cc1cc(C)c(C2=C(OC(=O)OCC)C3(CCC(COC)C3)NC2=O)c(Cl)c1 (centres unmarked) [Example P-18] | – | – | – | – | – | – | – | – | 100 | 100 | 100 | 100 | 100 | 100 | – | 80 | 80 | Post-emergence action against HORMU in % (HORMU): 100%
5 | CC#Cc1cc(C)c(C2=C(O)C3(CCC(COC)C3)NC2=O)c(Br)c1 (centres unmarked) [Example I-19] | 100 | 100 | 100 | 100 | 100 | 100 | 100 | – | 100 | 90 | 100 | 100 | 100 | 100 | 80 | 90 | – | Pre-emergence action against AMARE in % (AMARE [18]): 100%; Pre-emergence action against MATIN in % (MATIN): 80%; Pre-emergence action against POLCO in % (POLCO): 100%
6 | CC#Cc1cc(F)c(C2=C(O)C3(CCC(COC)C3)NC2=O)c(OC)c1 (centres unmarked) [Example I-40] | 100 | 100 | 100 | 100 | 90 | 100 | – | – | 100 | 90 | 100 | 100 | 90 | 100 | – | – | 80 | –
7 | CC#Cc1cc(C)c(C2=C(O)C3(CCC(COC)C3)NC2=O)c(OC)c1 (centres unmarked) [Example I-31] | 100 | 80 | 100 | 100 | 100 | 100 | 80 | – | 100 | 100 | 100 | 100 | 100 | 100 | – | 80 | 80 | –
8 | C=CCOCC1CCC2(C1)NC(=O)C(c1c(C)cc(C#CC)cc1Cl)=C2OC(=O)OCC (centres unmarked) [Example P-71] | 100 | 90 | 100 | 100 | 100 | 100 | 100 | 90 | 80 | 80 | 90 | 100 | 80 | 100 | 100 | – | – | Pre-emergence action against POLCO in % (POLCO): 90%
9 | CC#Cc1cc(C)c(C2=C(O)C3(CCC(COC)C3)NC2=O)c(F)c1 (centres unmarked) [Example I-36] | 100 | 80 | 100 | 100 | 100 | 100 | 80 | – | 100 | 100 | 100 | 100 | 100 | – | – | 80 | 80 | Pre-emergence action against AMARE in % (AMARE [18]): 90%
10 | CC#Cc1cc(F)c(C2=C(OC(=O)OCC)C3(CCC(COC)C3)NC2=O)c(OC)c1 (centres unmarked) [Example P-62] | 100 | 90 | 100 | 100 | 100 | 100 | – | – | 90 | 90 | 100 | 100 | 90 | 100 | – | 80 | 80 | –
